Results taken from patent US5149707A, “1-((2-fluorophenyl)(4-fluorophenyl)phenylmethyl)-1H-imidazole useful as antifungal agent” (J. Uriach & Cia, S.A., priority 1988, dated 1992).
≈ marks a conversion by molar mass, not a printed value. Like-named read-outs stand apart in the source and are kept apart here.

What was measured:
C. tropicalis SQ 1647 = assay: In vitro antifungal activity (MIC), agar dilution; format: cell-based
Protocol: (§1) The antifungal activity of 1-[(2-fluorophenyl)(4-fluorophenyl)phenylmethyl]-1H-imidazole was shown by its ability to inhibit the growth of different species of yeast and filamentous fungi in vitro. The activity was recorded as the MIC value, that is, the minimum amount of product needed to achieve the complete inhibition of the in vitro growth of the test organism. Testing was performed as follows: a solution of the antifungal agent in ethanol was diluted with DST agar (pH 6.5) or Emmon's Sabouraud dextrose agar to obtain concentrations between 10 and 0.01 mcg/ml, or 80 and 0.16 mcg/m, respectively. The inoculum was standarized in order 1×10^5 cfu/ml, and 10 mcl of each organism was seeded into the agar surface. Incubation was then allowed at 30° C. during 3 days (DST) or 2 days (Emmon's) for yeasts and 10 days for filamentous fungi. Following incubation, the zones of inhibition were measured and compared to an inoculated, drug-free control to yield the MIC value.

[1] = tested on: T. mentagrophytes ATCC 9972; assay: In vitro antifungal activity (MIC), agar dilution; format: cell-based; conditions: Trichophyton mentagrophytes
Protocol: as §1

[2] = tested on: Microsporum canis (clinica); assay: In vitro antifungal activity (MIC), agar dilution; format: cell-based
Protocol: as §1

[3] = tested on: Aspergillus fumigatus (1); assay: In vitro antifungal activity (MIC), agar dilution; format: cell-based
Protocol: as §1

C. albicans serotipo A = assay: In vitro antifungal activity (MIC), agar dilution; format: cell-based
Protocol: as §1

[4] = tested on: C. pseudotropicalis ATCC 28838; assay: In vitro antifungal activity (MIC), agar dilution; format: cell-based; conditions: Kluyveromyces marxianus
Protocol: as §1

Aspergillus flavus = assay: In vitro antifungal activity (MIC), agar dilution; format: cell-based
Protocol: as §1

Microsporum gypseum = assay: In vitro antifungal activity (MIC), agar dilution; format: cell-based; conditions: Nannizzia gypsea
Protocol: as §1

C. albicans ATCC 28516 = assay: In vitro antifungal activity (MIC), agar dilution; format: cell-based; conditions: Candida albicans
Protocol: as §1

C. albicans ATCC 10231 = assay: In vitro antifungal activity (MIC), agar dilution; format: cell-based; conditions: Candida albicans
Protocol: as §1

[5] = tested on: T. mentagrophytes (clinica) (2); assay: In vitro antifungal activity (MIC), agar dilution; format: cell-based; conditions: Trichophyton mentagrophytes
Protocol: as §1

[6] = Liposolubility (log P octanol-water); format: physicochemical
mice = conditions: mouse, in vivo
Tolerance (DL50) in mice = conditions: mouse, in vivo
fungi (some species) = assay: Preliminary tests of antifungal activity; format: cell-based
[7] = tested on: yeast and filamentous fungi; assay: Comparative antifungal tests of Examples 18 to 20; format: cell-based
Protocol: as §1, with “Incubation was then allowed at 30° C. during 3 days (DST) or 2 days (Emmon's) for yeasts and 10 days for filamentous fungi.” left out
The growth inhibition percentage of 5 different isolates on shake cultures was determined 24 h and 48 h after incubation at 28° C. […] The growth inhibition percentage was determined by spectrophotometry (450 nm). […]
The antifungal activity of 1-[(2-fluorophenyl)(4-fluorophenyl)phenylmethyl]-1H-imidazole and bifonazole was determined by serial dilutions in Sabouraud gentamycin broth using microplates. […] MIC's were determined as in example 18. […]

Pharmacokinetics = conditions: in words
[8] = Emmon's Sabouraud dextrose agar
[9] = Emmon's Sabouraud dextrose agar, read-out: MIC

SMILES: c1ccc(-c2ccc(C(c3ccccc3)n3ccnc3)cc2)cc1 (stereo not drawn) [Bifonazole, 1-[(4-biphenyl)-phenylmethyl]-1H-imidazole, reference compound]
- MIC (C. tropicalis SQ 1647; Candida tropicalis, SQ1647): 10 µg/mL (≈ 32.2 µM)
- MIC (C. tropicalis SQ 1647; [8]): 10.00 µg/mL (≈ 32.2 µM)
- MIC ([1]; ATCC9972, DST agar): 1 µg/mL (≈ 3.22 µM)
- MIC ([1]; ATCC9972, Emmon's Sabouraud dextrose agar): 5 µg/mL (≈ 16.1 µM)
- MIC ([2]; DST agar): 0.025 µg/mL (≈ 0.0805 µM)
- MIC [2, 8]: 2.5 µg/mL (≈ 8.05 µM)
- MIC ([3]; DST agar): 0.1 µg/mL (≈ 0.322 µM)
- MIC [3, 8]: 0.31 µg/mL (≈ 0.999 µM)
- MIC (C. albicans serotipo A; Candida albicans): 2.5 µg/mL (≈ 8.05 µM)
- MIC (C. albicans serotipo A; [8]): 2.50 µg/mL (≈ 8.05 µM)
- MIC ([4]; ATCC28838, DST agar): 0.05 µg/mL (≈ 0.161 µM)
- MIC ([4]; ATCC28838, Emmon's Sabouraud dextrose agar): 1.25 µg/mL (≈ 4.03 µM)
- MIC (Aspergillus flavus; DST agar): 10 µg/mL (≈ 32.2 µM)
- MIC (Aspergillus flavus; [8]): 80 µg/mL (≈ 258 µM)
- MIC (Microsporum gypseum; DST agar): 0.1 µg/mL (≈ 0.322 µM)
- MIC (Microsporum gypseum; [8]): 0.63 µg/mL (≈ 2.03 µM)
- MIC (C. albicans ATCC 28516; ATCC28516, DST agar): 2.5 µg/mL (≈ 8.05 µM)
- MIC (C. albicans ATCC 28516; ATCC28516, Emmon's Sabouraud dextrose agar): 0.63 µg/mL (≈ 2.03 µM)
- MIC (C. albicans ATCC 10231; ATCC10231, DST agar): 1 µg/mL (≈ 3.22 µM)
- MIC (C. albicans ATCC 10231; ATCC10231, Emmon's Sabouraud dextrose agar): 0.63 µg/mL (≈ 2.03 µM)
- MIC ([5]; DST agar): 10 µg/mL (≈ 32.2 µM)
- MIC [5, 8]: 80 µg/mL (≈ 258 µM)

SMILES: Fc1ccc(C(c2ccccc2)(c2ccccc2F)n2ccnc2)cc1 (stereo not drawn) [UR-4056, 1-[(2-fluorophenyl) (4-fluorophenyl)phenylmethyl]-1H-imidazole]
- liposolubility ([6]; in words): good liposolubility
- logP ([6]; octanol-water): 3.09
- tolerance (mice): good tolerance
- MIC (C. tropicalis SQ 1647; Candida tropicalis, SQ1647, DST agar, read-out: MIC): 1 µg/mL (≈ 2.89 µM)
- MIC (C. tropicalis SQ 1647; Candida tropicalis, SQ1647, Emmon's Sabouraud dextrose agar, read-out: MIC): 0.63 µg/mL (≈ 1.82 µM)
- MIC ([1]; ATCC9972, DST agar, read-out: MIC): 0.25 µg/mL (≈ 0.722 µM)
- MIC ([1]; ATCC9972, Emmon's Sabouraud dextrose agar, read-out: MIC): 1.25 µg/mL (≈ 3.61 µM)
- MIC ([2]; DST agar): 0.025 µg/mL (≈ 0.0722 µM)
- MIC [2, 8]: 0.63 µg/mL (≈ 1.82 µM)
- MIC ([3]; DST agar, read-out: MIC): 0.5 µg/mL (≈ 1.44 µM)
- MIC [3, 9]: 0.63 µg/mL (≈ 1.82 µM)
- MIC (C. albicans serotipo A; Candida albicans, DST agar, read-out: MIC): 1 µg/mL (≈ 2.89 µM)
- MIC (C. albicans serotipo A; Candida albicans, Emmon's Sabouraud dextrose agar, read-out: MIC): 1.25 µg/mL (≈ 3.61 µM)
- MIC ([4]; ATCC28838, DST agar, read-out: MIC): 0.025 µg/mL (≈ 0.0722 µM)
- MIC ([4]; ATCC28838, Emmon's Sabouraud dextrose agar, read-out: MIC): 0.63 µg/mL (≈ 1.82 µM)
- MIC (Aspergillus flavus; DST agar): 1 µg/mL (≈ 2.89 µM)
- MIC (Aspergillus flavus; [8]): 2.5 µg/mL (≈ 7.22 µM)
- MIC (Microsporum gypseum; DST agar): 0.5 µg/mL (≈ 1.44 µM)
- MIC (Microsporum gypseum; [8]): 1.25 µg/mL (≈ 3.61 µM)
- MIC (C. albicans ATCC 28516; ATCC28516, DST agar, read-out: MIC): 0.5 µg/mL (≈ 1.44 µM)
- MIC (C. albicans ATCC 28516; ATCC28516, Emmon's Sabouraud dextrose agar, read-out: MIC): 0.04 µg/mL (≈ 0.115 µM)
- MIC (C. albicans ATCC 10231; ATCC10231, DST agar, read-out: MIC): 1 µg/mL (≈ 2.89 µM)
- MIC (C. albicans ATCC 10231; ATCC10231, Emmon's Sabouraud dextrose agar, read-out: MIC): 0.04 µg/mL (≈ 0.115 µM)
- MIC ([5]; DST agar, read-out: MIC): 10 µg/mL (≈ 28.9 µM)
- MIC [5, 9]: 40 µg/mL (≈ 115 µM)
- LD50 (Tolerance (DL50) in mice): 691 mg/kg
- antifungal activity (fungi (some species)): very good activity against some species
- potency compared with bifonazole [7]: more potent than bifonazole in many instances
- pharmacokinetics (Pharmacokinetics): appropiate pharmacokinetics
